From patent publication US20070197446A1, “MHC binding peptides and their uses” (ProImmune Limited, priority 2006, published 2007) come the findings set out here.

Among the targets are HLA-A*0201 (Homo sapiens, UniProt P04439, D140Y/D185E/D98H/E176V/E277Q/G131W/G231S/I119V/I121R/I166T/I218V/L300P/L318F/N151K/N90K/P208A/P217A/Q86G/Q94H/R138H/R169H/T345S); HLA-A*0301 (Homo sapiens, UniProt P04439); HLA-B*0702 (Homo sapiens, UniProt P01889); HLA-B*0801 (Homo sapiens, UniProt P01889, A93T/A95T/D138N/E176V/E187T/K202T/Q94N/R180D/S35A/V36M/Y33D/Y91F); HLA-B*3501 (Homo sapiens, UniProt P01889, A329T/A93T/A95T/C349S/D201E/D98Y/E176V/E187L/E204Q/E69T/I218V/K202T/L119I/Q94N/R155S/R180L/S121R/S35A/S48A/T118I/V127L/V306I/V36M/Y140S/Y91F); HLA-A*0101 (Homo sapiens, UniProt P04439, A114D/A174V/A182V/D101N/D185E/E176A/E190D/L180R/Q94H/R68K/S129P/T187R/V100A/V91M/W191G).

What all share (type): binding

Take KLCDLDGVK [SEQ ID NO: 22]: the figures for the “ELISA (Absorption-Pass/Fail Control)” value on HLA-A*0201 and on HLA-A*0301 were 0.20 and 1.16, respectively. Turning to TIMEKNVTV [SEQ ID NO: 18], the “ELISA (Absorption-Pass/Fail Control)” value at HLA-B*0702 worked out at 0.00; at HLA-A*0201, 0.99; on HLA-B*0801 it was 0.80. Turning to KKHNGKLCD [SEQ ID NO: 41], the “ELISA (Absorption-Pass/Fail Control)” value on HLA-B*3501 is −0.05.

For the sequence “ILRGSVAHK (T cell epitope) [SEQ ID NO: 5, reference compound]”, in the experiment with HLA-A*0301, the “ELISA (Absorption-Pass/Fail Control)” value is on record as 1.19 and the “efficiency of binding to HLA-A*0301 (in words)” value is on record as “high efficiency”. For AQDILEKKH [SEQ ID NO: 21], the “ELISA (Absorption-Pass/Fail Control)” value at HLA-A*0201 turned out to be 0.15. Turning to ILRDCSVAG [SEQ ID NO: 30], the “ELISA (Absorption-Pass/Fail Control)” value at HLA-B*0702 is 0.03.

For the sequence VAGWLLGNP [SEQ ID NO: 37], the “ELISA (Absorption-Pass/Fail Control)” value at HLA-B*0801 turned out to be 0.04.

With DTIMEKNVT [SEQ ID NO: 32], on HLA-B*0801, the “ELISA (Absorption-Pass/Fail Control)” value stood at 0.08. PLILRDCSV [SEQ ID NO: 36]: the “ELISA (Absorption-Pass/Fail Control)” value on HLA-B*0801 came out at 0.65.

With VSLVKSDQI [SEQ ID NO: 31], the “ELISA (Absorption-Pass/Fail Control)” value at HLA-B*0801 was 0.36.

For the sequence ILEKKHNGK [SEQ ID NO: 28], the “ELISA (Absorption-Pass/Fail Control)” value at HLA-B*0801 is recorded as 0.95; at HLA-A*0301 it was −0.01. On to LFAIVSLVK [SEQ ID NO: 40], for which the “ELISA (Absorption-Pass/Fail Control)” value at HLA-B*3501 was 0.10. Consider VTHAQDILE [SEQ ID NO: 33], for which the “ELISA (Absorption-Pass/Fail Control)” value at HLA-B*0801 was found to be 0.31. Still for that read-out and setting: the figure for WLLGNPMCD [SEQ ID NO: 38] is 0.03. For the sequence AIVSLVKSD [SEQ ID NO: 14], the “ELISA (Absorption-Pass/Fail Control)” value on HLA-A*0201 came to 0.43. For LVKSDQICI [SEQ ID NO: 29], the “ELISA (Absorption-Pass/Fail Control)” value on HLA-B*0702 is reported as −0.06; on HLA-B*3501 it was 0.04. With GNPMCDEFI [SEQ ID NO: 39], the “ELISA (Absorption-Pass/Fail Control)” value at HLA-B*0801 is recorded as 0.04. Consider FINVPEWSY [SEQ ID NO: 10], for which the figures for the “ELISA (Absorption-Pass/Fail Control)” value on HLA-B*3501 and at HLA-A*0101 were 0.57 and 0.16, respectively. Take PMCDEFINV [SEQ ID NO: 24]: the “ELISA (Absorption-Pass/Fail Control)” value on HLA-A*0201 was 0.98. Regarding YIVEKANPV [SEQ ID NO: 26], the “ELISA (Absorption-Pass/Fail Control)” value at HLA-B*0702 stood at 0.11; at HLA-A*0201, 1.02; at HLA-B*0801, 0.32. On to IVSLVKSDQ [SEQ ID NO: 15], for which, on HLA-A*0201, the “ELISA (Absorption-Pass/Fail Control)” value came out at 0.04. For “YSEHPFTSQY (T cell epitope) [SEQ ID NO: 2, reference compound]”, in the experiment with HLA-A*0101, the “ELISA (Absorption-Pass/Fail Control)” value amounted to 0.58 and the “efficiency of binding to HLA-A*0101 (in words)” value is recorded as “high efficiency”. In the case of DILEKKHNG [SEQ ID NO: 34], the “ELISA (Absorption-Pass/Fail Control)” value on HLA-B*0801 was found to be 0.53. Take LLFAIVSLV [SEQ ID NO: 12]: the “ELISA (Absorption-Pass/Fail Control)” value at HLA-A*0201 was 1.06.

For IMEKNVTVT [SEQ ID NO: 19], the “ELISA (Absorption-Pass/Fail Control)” value at HLA-A*0201 is 0.02. In the case of HANNSTEQV [SEQ ID NO: 17], the “ELISA (Absorption-Pass/Fail Control)” value at HLA-A*0201 and on HLA-B*3501 was 0.43 in each case. VLLFAIVSL [SEQ ID NO: 11]: the “ELISA (Absorption-Pass/Fail Control)” value at HLA-A*0201 stood at 0.47. For the sequence KPLILRDCS [SEQ ID NO: 35], the “ELISA (Absorption-Pass/Fail Control)” value at HLA-B*0801 is listed as 0.10. Take FAIVSLVKS [SEQ ID NO: 13]: the “ELISA (Absorption-Pass/Fail Control)” value at HLA-A*0201 was found to be 0.07.

Regarding NVPEWSYIV [SEQ ID NO: 25], at HLA-A*0201, the “ELISA (Absorption-Pass/Fail Control)” value is 1.03. With AGWLLGNPM [SEQ ID NO: 42], at HLA-B*3501, the “ELISA (Absorption-Pass/Fail Control)” value is recorded as −0.06. In the case of NVTVTHAQD [SEQ ID NO: 27], the “ELISA (Absorption-Pass/Fail Control)” value is reported as 0.08 at HLA-B*0801 and −0.04 on HLA-A*0301. As for “HPVGEADYFEY (T cell epitope) [SEQ ID NO: 8, reference compound]”, in the experiment with HLA-B*3501, the “ELISA (Absorption-Pass/Fail Control)” value stood at 0.55 and the “efficiency of binding to HLA-B*3501 (in words)” value was “high efficiency”. For LGNPMCDEF [SEQ ID NO: 43], the “ELISA (Absorption-Pass/Fail Control)” value at HLA-B*3501 is on record as 0.35. Turning to SLVKSDQIC [SEQ ID NO: 16], the “ELISA (Absorption-Pass/Fail Control)” value on HLA-A*0201 is on record as 0.09; at HLA-B*3501 it was −0.03.

In the case of KSDQICIGY [SEQ ID NO: 9], the “ELISA (Absorption-Pass/Fail Control)” value is reported as 0.47 at HLA-A*0101 and 0.05 on HLA-A*0301.

For LILRDCSVA [SEQ ID NO: 23], the “ELISA (Absorption-Pass/Fail Control)” value on HLA-A*0201 came out at 0.57; at HLA-B*0801, 0.07. Consider MEKNVTVTH [SEQ ID NO: 20], for which the “ELISA (Absorption-Pass/Fail Control)” value on HLA-A*0201 is −0.02. On to “TPRVTGGGAM (T cell epitope) [SEQ ID NO: 6, reference compound]”, for which, in the experiment with HLA-B*0702, the “ELISA (Absorption-Pass/Fail Control)” value is reported as 0.88 and the “efficiency of binding to HLA-B*0702 (in words)” value is “high efficiency”.
